We go through nine substances from US20040171795A1, “Novel peptides” (priority 2000, published 2004).

Data set [1] in a line: Affinity for phosphatidyl serine (EIA, inhibition of human Factor VIII binding). The following applies: class of IC50 for inhibiting human Factor VIII binding, 5% BSA. On the procedure: The specific affinity of the peptide for phosphatidyl serine was evaluated by measuring activity of the peptide for inhibiting the binding of the human Factor VIII to phosphatidyl serine by using human Factor VIII which is known to bind to phosphatidyl serine but not to phosphatidyl choline in the presence of serum albumin. To be more specific, 100 μL of ethanol solution containing 10 μg/mL of phospholipids at a phosphatidyl serine (manufactured by SIGMA): phosphatidyl choline (manufactured by SIGMA) ratio of 3:7 was added to the wells of a 96 well plate (Immulon I, manufactured by Dynatech), and exsiccated by using a centrifugal evaporator (EC-95C, manufactured by Sakuma Seisakusho) at 40° C. for 40 minutes. 200 μL each of TBS (10 mM Tris-HCl (pH 7.4) containing 1% bovine serum albumin (BSA Fraction V, hereinafter referred to as BSA, manufactured by Seikagaku Corporation) and 0.9% (W/V) NaCl solution were added to each well, and the wells were blocked by allowing the plate to stand at 37° C. for 2.5 hours. After washing the plate with water, 100 μL of TBS solution supplemented with 5% BSA mixed with human Factor VIII (manufactured by American Diagnostica) at a final concentration 1 μg/mL and the peptide of predetermined dose prepared in Example 1 was added to each well, and the reaction was allowed to take place at 4° C. for 24 hours.
After the completion of the reaction, the human Factor VIII that became bound to the phosphatidyl serine was measured by enzyme immunoassay (EIA) in accordance with the general procedure described in a book (“Enzyme Immunoassay (3rd ed.)”, Eiji Ishikawa et al., Igaku-Shoin, 1987). To be more specific, the measurement was conducted by using anti-human Factor VIII mouse monoclonal antibody (ESH8, manufactured by American Diagnostica) for the primary antibody, horseradish peroxidase-labeled anti-mouse IgG antibody (P0260, manufactured by Daco) for the secondary antibody, and tetramethylbenzidine for the chromogenic substrate, and measuring the absorption at a wavelength of 450 nm by using a reference wavelength of 630 nm on a spectrophotometer (NJ-2100, manufactured by Intermed).
Intensity of the affinity of the peptide for the phosphatidyl serine was evaluated by using the value obtained by subtracting the absorption of the well having no human Factor VIII added thereto from the absorption of the well having only the human Factor VIII added thereto as the control value (100%), and designating the peptide concentration at which the value 0.5 was obtained when the value obtained by subtracting the absorption of the well having only the peptide added thereto from the absorption of the well having a mixture of the human Factor VIII and the peptide added thereto were divided by the control value as the IC50 value, and evaluating the intensity to be ++ when the IC50 value was up to 1 μM, and +when the intensity was more than 1 μM but not more than 10 μM. It is to be noted that the specific affinity was evaluated to be none when the intensity was 10 μM or more.

Data set [2] has as its system cell (Vero, T24 or A549 of Example 9; not given). The data set is described as follows: Nucleic acid-introducing ability, luciferase-expressing plasmid (procedure of Example 9). The settings on record: for Nucleic acid-introducing ability: class of fluorescent count per 1 mg of protein per 1 second, highest of peptide 1.25, 2.5, 5 μM, plasmid 1 μg/mL. The class given is cell-based. The text has this:
A cell line established from monkey kidney (Vero cell) and a human bladder cancer cell (T24 cell) purchased from American Type Culture Collection (ATCC) and human lung cancer cell (A549 cell) purchased from Dainippon Pharmaceutical were inoculated on a 24 well culture plate (manufactured by NALGEN NUNC) at 1×10^5 cells/well. Vero cell and A549 cell were cultivated in DMEM (manufactured by Life Technologies Oriental) supplemented with 10% fetal bovine serum (hereinafter referred to as FBS, manufactured by NICHIREI), and T24 cell was cultivated in McCoy's 5a (manufactured by Life Technologies Oriental) supplemented with 10% FBS in 5% CO2 atmosphere at 37° C. for 24 hours. After removing the medium, opti-MEM (manufactured by Life Technologies Oriental) prepared to have the concentration of the luciferase-expressing plasmid prepared in Example 7 of 1 μg/mL and the concentration of the peptide prepared in Example 1 of 1.25, 2.5, or 5 μM was added, and the cells were cultivated for 5 hours. Next, in the case of Vero cell and A549 cell, the culture medium was replaced with DMEM supplemented with 10% FBS, and in the case of T24 cell, the medium was replaced with McCoy's 5a supplemented with 10% FBS, and cultivation was continued in 5% CO2 atmosphere and at 37° C. for another 24 hours. The luciferase activity expressed in the cell was then measured by the method instructed in luciferase assay system (manufactured by Promega). To be more specific, the cells were washed with phosphate-buffered saline (hereinafter referred to as PBS, manufactured by SIGMA), and the cells were lyzed with Passive Lysis Buffer attached to the kit. 20 μL of this cell lysate and 100 μL of the Luciferase Assay Reagent II attached to the kit was added to a fluorescence-measuring plate (Microlite™ 1 plate, manufactured by Dynatech), and after mixing, fluorescence was measured for 1 second by using a multilabel counter (ARVO™ SY1420 MULTILABEL COUNTER, manufactured by Wallac Beltold.
Concentration of the protein in the cell lysate was measured by mixing 8 μL of the cell lysate and 200 μL of the protein assay solution (manufactured by Biorad) with 792 μL of ultrapure water in a disposable cuvette (UV fluorescent cuvette A204X, manufactured by Funakoshi), allowing the mixture to stand for 5 minutes at room temperature, and measuring the absorption at 595 nm with a spectrophotometer (DU640, manufactured by Beckman). Bovine serum albumin (BSA) was used for the standard protein. By using the thus obtained results, count per 1 second per 1 mg of protein of the cell lysate was calculated to thereby use the count as the luciferase activity, and the highest count in the three conditions of different peptide concentration was designated the gene-introducing ability of the peptide.
It is to be noted that the nucleic acid-introducing ability was classified as described below on the bases of the fluorescent count per 1 mg of protein per 1 second (cps/mg protein).

Data set [3] can be described thus: Measurement of turbidity in BSA. The class given is physicochemical. The settings on record: BSA 1%, peptide 50 μM, absorbance at 600 nm. On the procedure:
The solutions were evaluated for their absorbance at a wavelength of 600 nm by using a spectrophotometer (DU640, manufactured by Beckman).

The next data set relates to Vero cell. The data set is described as follows: Storage stability of the complex with nucleic acid (luciferase activity). The class given is cell-based, monkey. The following applies: luciferase-expressing plasmid 2 μg/mL, peptide 5 μM; reagents per attached protocol. The protocol: Luciferase-expressing plasmid was introduced in Vero cell in accordance with the procedure described in Example 9 by using the opti-MEM prepared to have a concentration of the luciferase-expressing plasmid prepared in Example 7 of 2 μg/mL and a concentration of the peptide of SEQ ID NO:4 prepared in Example 1 of 5 μM to thereby measure the luciferase activity. The opti-MEM containing plasmid and peptide used were the one which had been prepared immediately before the gene introduction, and the one which had been prepared 1 week (7 days) in advance and stored at 4° C.
For the purpose of reference, gene-introducing activity of Lipofectin and LipofectAMINE 2000 (manufactured by Life Technologies Oriental), which are commercially available plasmid-introducing agents, were also evaluated by mixing these reagent with luciferase-expressing plasmid in accordance with the attached protocol, and evaluating their gene-introducing activity after storing at 4° C. for 1 week.

Data set [4] in a line: Measurement of CD spectrum. The class given is physicochemical. The following applies: aqueous solution solely containing an inorganic salt, pH 7, 35° C. The protocol: The peptide dissolved in 10 mM phosphate buffer (pH=7) containing 50 mM NaCl was evaluated for its CD spectrum in the presence and in the absence of 5 mM SDS by using a circular dichroism spectrophotometer (J-500A, manufactured by JASCO). The cell length was 1 mm. The measurement was conducted at 35° C. for 6 times in total. FIGS. 7 to 9 are respectively views showing mean residue ellipticity in CD spectroscopy of the peptide of SEQ ID NO:1, the peptide of SEQ ID NO:4 and the peptide of SEQ ID NO:16. As evident in FIGS. 7 to 9, the mean residue ellipticity obtained in the presence of SDS was the so called W curve and local minimums were found in the areas at the wavelength of 205 to 210 nm and 220 to 225 nm, and α-helix structure was thereby confirmed.

“SEQ ID NO: 7: peptide of SEQ ID NO:1 with one or two locations substituted in the 18 amino acid sequence (TRYLRIHPRSWVHQIALKLKYLRIHPRSWVHQIALRS; synthetic peptide using an automatic peptide synthesizer)”: the IC50 in data set [1] lay in the range of 1 to 10 µM. Besides, in data set [2], the Nucleic acid-introducing ability was 2+ (100,000 to less than 1,000,000). The “OD 600” value in data set [3] is 0.01>.
The matching figures for “SEQ ID NO: 8: peptide of SEQ ID NO:1 with one or two locations substituted in the 18 amino acid sequence (TRYLRIHPKSWVHQIALRLRYLKIHPRSWVHQIALRS; synthetic peptide using an automatic peptide synthesizer)”: 1 to 10 µM, 3+ (1,000,000 to less than 10,000,000) and 0.01>.
The substance “SEQ ID NO: 11: peptide of SEQ ID NO:1 with one or two locations substituted in the 18 amino acid sequence (TRYLRIHPRLWVHQIALRLRYLRIHPRLWVHQIALRS; synthetic peptide using an automatic peptide synthesizer)” had an IC50 in data set [1] of 1 to 10 µM. Further, in data set [2], the Nucleic acid-introducing ability is given as 3+ (1,000,000 to less than 10,000,000). The “OD 600” value in data set [3] is 0.01>.
For “SEQ ID NO: 23: deletion mutant of the peptide of SEQ ID NO:1 (TIHPRSWVHQIALRLRYLRIHPRSWVHQIAS; synthetic peptide using an automatic peptide synthesizer)”, the IC50 in data set [1] is less than 1 µM. The Nucleic acid-introducing ability in data set [2] was 2+ (100,000 to less than 1,000,000). For the same substance, in data set [2] (procedure of Example 9, luciferase-expressing plasmid), the “ability of introducing the nucleic acid into a cell” value is “had the ability of introducing the nucleic acid into a cell”. Also, in data set [3], the “OD 600” value was 0.01>.
Substance “SEQ ID NO: 3: peptide of SEQ ID NO:1 with one or two locations substituted in the 18 amino acid sequence (TRYLRIHPRSWVHQIRLRLRYLRIHPRSWVHQIRLRS; synthetic peptide using an automatic peptide synthesizer)” gave a half-inhibitory concentration (IC50) in data set [1] of less than 1 µM. Further, in data set [2], the Nucleic acid-introducing ability is given as 2+ (100,000 to less than 1,000,000). In addition, the “OD 600” value in data set [3] was 0.01>.
Regarding “SEQ ID NO: 19: peptide of SEQ ID NO:1 with three locations substituted in the 18 amino acid sequence; preferred peptide (TRYLRLHPRSWLHQLALRLRYLRLHPRSWLHQLALRS; synthetic peptide using an automatic peptide synthesizer)”, in data set [1], the half-inhibitory concentration (IC50) is less than 1 µM. Besides, the Nucleic acid-introducing ability in data set [2] was 4+ (10,000,000 or more). Besides, in data set [3], the “OD 600” value was 0.01>.
For “SEQ ID NO: 5: peptide of SEQ ID NO:1 with one or two locations substituted in the 18 amino acid sequence (TRFLRIHPRSWVHQIALRLRFLRIHPRSWVHQIALRS; synthetic peptide using an automatic peptide synthesizer)” the same measures were less than 1 µM, 2+ (100,000 to less than 1,000,000) and 0.01>.
In data set [1], “SEQ ID NO: 10: peptide of SEQ ID NO:1 with one or two locations substituted in the 18 amino acid sequence (TRSLRIHPRSWVHQIALRLRSLRIHPRSWVHQIALRS; synthetic peptide using an automatic peptide synthesizer)” gave an IC50 of 1 to 10 µM. In addition, the Nucleic acid-introducing ability in data set [2] is 3+ (1,000,000 to less than 10,000,000). In addition, the “OD 600” value in data set [3] is given as 0.01>.
Turning to “SEQ ID NO: 4: peptide of SEQ ID NO:1 with one or two locations substituted in the 18 amino acid sequence (TRYLRIHPRSWLHQIALRLRYLRIHPRSWLHQIALRS; synthetic peptide using an automatic peptide synthesizer)”, the “gene-introducing activity after storing the complex at 4° C. for 1 week, relative to freshly prepared complex” value in the data set with Vero cell is “substantially equivalent”. For the same substance, in data set [4], the “α-helix structure in CD spectrum in the absence of SDS” value is “do not take α-helix structure”. In addition, the Nucleic acid-introducing ability in data set [2] was 4+ (10,000,000 or more).
